Data: patent publication US20180155341A1, “Antibacterial Compounds” (Janssen Sciences Ireland UC, priority 2015, published 2018)
Converted amounts (≈) assume the structure as drawn.

How the values were obtained:
[1] = system: Mycobacterium tuberculosis strain EH 4.0 (361.269); assay: Test 4: MIC determination against M. tuberculosis, resazurin fluorescence read-out, different strain; assay type: cell-based; conditions: read-out: pIC50 (converted)
Text: Test 4 (See Also Test 1 Above; in this Test a Different Strain of Mycobacterium tuberculosis Strain is Employed)
Appropriate solutions of experimental and reference compounds were made in 96 well plates with 7H9 medium. Samples of Mycobacterium tuberculosis strain EH 4.0 (361.269) were taken from cultures in stationary growth phase. These were first diluted to obtain an optical density of 0.3 at 600 nm wavelength and then diluted 1/100, resulting in an inoculum of approximately 5×10 exp5 colony forming units per well. Plates were incubated at 37° C. in plastic bags to prevent evaporation. After 7 days, resazurin was added to all wells.

[2] = system: Mycobacterium tuberculosis strain H37Rv; assay: Test 1: MIC determination against M. tuberculosis, resazurin fluorescence read-out; assay type: cell-based; conditions: Test 1, strain H37Rv
[3] = system: MDR tuberculosis; conditions: stated in J. Medicinal Chemistry, 2014, 57 (12); cited from earlier work
[4] = system: M. tuberculosis H37Rv; conditions: strain H37Rv, inside macrophages; cited from earlier work
[5] = system: replicating and non-replicating bacteria; conditions: stated in J. Medicinal Chemistry, 2014, 57 (12); cited from earlier work

Row | SMILES | IC50 [1] [nM] | other results
1 | Cc1nc2sccn2c1C(=O)NCc1ccc2nc(N3CCN(c4ccc(OC(F)(F)F)cc4)CC3)ccc2c1 [Compound 9] | 141 | –
2 | Cc1nc2sccn2c1C(=O)NCc1ccc2nc(N(C)CCc3ccc(OC(F)(F)F)cc3)ccc2c1 [Compound 11] | 355 | –
3 | CCc1nc2n(c1C(=O)NCc1ccc3nc(N4CCC(c5ccc(OC(F)(F)F)cc5)CC4)ccc3c1)CCN(C)C2 [Compound 8] | 158 | –
4 | Cc1nn2ccccc2c1C(=O)NCc1ccc2nc(N3CCC(c4ccc(OC(F)(F)F)cc4)CC3)ccc2c1 [Compound 26] | 398 | –
5 | CCc1c(C(=O)NCc2ccc3nc(N4CCC(c5ccc(OC(F)(F)F)cc5)CC4)ccc3c2)c2cc(Cl)cnc2n1C [Compound 22] | > 12600 | –
6 | CCc1nc2ccc(Cl)cn2c1C(=O)NCc1ccc2nc(N3CC4CC(F)CC4C3)ccc2c1 (centres unmarked) [Compound 4] | 31.6 | –
7 | Cc1nc2sccn2c1C(=O)NCc1ccc2nc(N(C)Cc3ccc(OC(F)(F)F)cc3)ccc2c1 [Compound 19] | 282 | –
8 | CCc1nc2ncc(Cl)cn2c1C(=O)NCc1ccc2nc(N3CC4(CC(c5ccc(OC(F)(F)F)cc5)C4)C3)ccc2c1 [Compound 1] | 39.8 | –
9 | CCc1nc2ccc(Cl)cn2c1C(=O)NCc1ccc2nc(N3CC4(CC(F)C4)C3)ccc2c1 [Compound 25] | 178 | –
10 | CCc1nc2ccc(Cl)cn2c1C(=O)NCc1ccc2nc(N3CCC(F)(F)CC3)ccc2c1 [Compound 24] | 6.31 | –
11 | CCc1nc2ccc(Cl)cn2c1C(=O)NCc1ccc2ncc(N(C)Cc3ccc(OC(F)(F)F)cc3)cc2c1 [Compound 20] | 794 | –
12 | Cc1nn2ccccc2c1C(=O)NCc1ccc2nc(N3CCN(c4ccc(OC(F)(F)F)cc4)CC3)ccc2c1 [Compound 27] | 794 | –
13 | CCc1nc2ccc(Cl)cn2c1C(=O)NCc1ccc2nc(N3CC4(CC(c5ccc(OC(F)(F)F)cc5)C4)C3)ccc2c1 [Compound 2] | 200 | IC50 ([2]; first test): 676 nM; IC50 ([2]; repeated (2nd) test): 692 nM; IC50 ([2]; repeated (3rd) test): 589 nM
14 | CCc1c(C(=O)NCc2ccc3nc(N4CCC(c5ccc(OC(F)(F)F)cc5)CC4)ccc3c2)c2cc(Cl)ccc2n1C [Compound 21] | > 12600 | –
15 | CCc1nc2ccc(Cl)cn2c1C(=O)NCc1ccc2nc(N(C)Cc3ccc(OC(F)(F)F)cc3)ccc2c1 [Compound 17] | 79.4 | –
16 | CCc1nc2n(c1C(=O)NCc1ccc3nc(N4CCN(c5ccc(OC(F)(F)F)cc5)CC4)ccc3c1)CCCC2 [Compound 10] | 126 | –
17 | Cc1nc2sccn2c1C(=O)NCc1ccc2nc(N3CCC(c4ccc(OC(F)(F)F)cc4)CC3)ccc2c1 [Compound 7] | 200 | –
18 | CCc1c(C(=O)NCc2ccc3nc(N4CC5(CC(c6ccccc6)C5)C4)ccc3c2)c2cc(Cl)cnc2n1C [Compound 12] | > 12600 | –
19 | CCc1nc2ccc(Cl)cn2c1C(=O)NCc1ccc(N2CCC(c3ccc(OC(F)(F)F)cc3)CC2)cc1 [Compound Q203] | – | activity against MDR tuberculosis [3]: activity against MDR tuberculosis; MIC50 [4]: 0.28 nM (≈ 0.156 ng/mL); activity against replicating and non-replicating bacteria [5]: highly active
20 | CCc1nc2ccc(Cl)cn2c1C(=O)NCc1ccc2cc(N(C)Cc3ccc(OC(F)(F)F)cc3)cnc2c1 [Compound 18] | 1000 | –
21 | CCc1nc2ccc(Cl)cn2c1C(=O)NCc1ccc2nc(N3CCC(c4ccc(OC(F)(F)F)cc4)CC3)ccc2c1 [Compound 3] | 50.1 | –
22 | O=C(NCc1ccc2nc(N3CCC(c4ccc(OC(F)(F)F)cc4)CC3)ccc2c1)c1cc2c([nH]1)CCCC2 [Compound 23] | > 12600 | –
23 | CCc1c(C(=O)NCc2ccc3nc(N4CC(c5ccccc5)C4)ccc3c2)c2cc(Cl)cnc2n1C [Compound 13] | > 12600 | –
24 | CCc1nc2ccc(Cl)cn2c1C(=O)NCc1ccc2nc(N(C)Cc3ccc(OC(F)(F)F)cc3)cnc2c1 [Compound 15] | 631 | –
